Experimental data from patent US20040142971A1, “BENZOTHIOPHENE COMPOUNDS HAVING ANTIINFECTIVE ACTIVITY” (GeneSoft, Inc., priority 2001, published 2004).

How the values were obtained:
Test in all cases: MIC, NCCLS broth microdilution
[1] = system: S. pneumoniae ATCC 51422 (penicillin resistant strain, PRSP); type: cell-based, Streptococcus pneumoniae; conditions: H = S. pneumoniae ATCC 51422
Text: (§1) In vitro biological activity data were collected for a variety of microorganisms, including Bacillus cereus (ATCC 11778), Staphylococcus aureus (ATCC 27660 (a methicillin resistant strain (MRSA), ATCC 33591 and ATCC 43300); ATCC 13709, a methicillin sensitive strain (MSSA)); Streptococcus pneumoniae (ATCC 51422, a penicillin resistant strain (PRSP)), Enterococcus faecium (ATCC 51559, a vancomycin resistant strain (VRE)), and Staphylococcus epidermidis (ATCC 700586, a methycillin resistant strain (MRSE)). Additionally, antifungal activity data were collected for Candida albicans (ATCC 38247). Minimal inhibition concentrations (MIC's) were determined using the National Committee for Clinical Laboratory Standards (NCCLS) broth microdilution assay in microtiter plates, as set forth in: (1) the guidelines of the National Committee for Clinical Laboratory Standards (NCCLS) Document M7-A4 (NCCLS, 1997); (2) the guidelines of the National Committee for Clinical Laboratory Standards (NCCLS) Document M11-A4 (NCCLS, 1997); and (3) the guidelines and reference method of the National Committee for Clinical Laboratory Standards (NCCLS) Document M27-T (NCCLS, 1995). For antifungal essays, the method recommended in Murray, PR., 1995 Manual of Clinical Microbiology (ASM Press, Washington, D.C.), was employed.

[2] = system: E. faecium ATCC 51559 (vancomycin resistant strain, VRE); type: cell-based, Enterococcus faecium; conditions: B = E. faecium ATCC 51559
Text: as §1

S. aureus ATCC 33591 = type: cell-based, Staphylococcus aureus; conditions: E = S. aureus ATCC 33591
Text: as §1

[3] = system: S. aureus ATCC 27660 (methicillin resistant strain, MRSA); type: cell-based, Staphylococcus aureus; conditions: D = S. aureus ATCC 27660
Text: as §1

[4] = system: S. aureus ATCC 13709 (methicillin sensitive strain, MSSA); type: cell-based, Staphylococcus aureus; conditions: C = S. aureus ATCC 13709
Text: as §1

[5] = system: S. epidermidis ATCC 700586 (methycillin resistant strain, MRSE); type: cell-based, Staphylococcus epidermidis; conditions: G = S. epidermidis ATCC 700586
Text: as §1

B. Cereus ATCC 11778 = type: cell-based, Bacillus cereus; conditions: A = B. Cereus ATCC 11778
Text: as §1

COCn1cc(NC(=O)c2cc3ccccc3cn2)cc1C(=O)Nc1cc(C(=O)Nc2cc(C(=O)NCCN3CCOCC3)n(C)c2)n(C)c1 [Ib-72]
Minimum Inhibitory Concentration (MIC) [1]: + (+ = MIC from 12 to 32, inclusive)
Minimum Inhibitory Concentration (MIC) [2]: +++ (+++ = MIC ≦ 4)
Minimum Inhibitory Concentration (MIC) (S. aureus ATCC 33591): +++ (+++ = MIC ≦ 4)
Minimum Inhibitory Concentration (MIC) [3]: +++ (+++ = MIC ≦ 4)
Minimum Inhibitory Concentration (MIC) [4]: +++ (+++ = MIC ≦ 4)
Minimum Inhibitory Concentration (MIC) [5]: +++ (+++ = MIC ≦ 4)
Minimum Inhibitory Concentration (MIC) (B. Cereus ATCC 11778): +++ (+++ = MIC ≦ 4)

Cn1cc(NC(=O)c2sc3cc4c(cc3c2Cl)OCO4)cc1C(=O)NCCN1CCCC1 [Ib-20o]
Minimum Inhibitory Concentration (MIC) [1]: +++ (+++ = MIC ≦ 4)
Minimum Inhibitory Concentration (MIC) [2]: +++ (+++ = MIC ≦ 4)
Minimum Inhibitory Concentration (MIC) (S. aureus ATCC 33591): +++ (+++ = MIC ≦ 4)
Minimum Inhibitory Concentration (MIC) [3]: +++ (+++ = MIC ≦ 4)
Minimum Inhibitory Concentration (MIC) [4]: +++ (+++ = MIC ≦ 4)
Minimum Inhibitory Concentration (MIC) [5]: +++ (+++ = MIC ≦ 4)
Minimum Inhibitory Concentration (MIC) (B. Cereus ATCC 11778): +++ (+++ = MIC ≦ 4)

Cn1cc(NC(=O)c2cc(NC(=O)c3cc(NC(=O)c4cc5ccccc5cn4)c[nH]3)cn2C)cc1C(=O)NCCc1ccccn1 [Ib-70]
Minimum Inhibitory Concentration (MIC) [1]: +++ (+++ = MIC ≦ 4)
Minimum Inhibitory Concentration (MIC) [2]: +++ (+++ = MIC ≦ 4)
Minimum Inhibitory Concentration (MIC) (S. aureus ATCC 33591): +++ (+++ = MIC ≦ 4)
Minimum Inhibitory Concentration (MIC) [3]: +++ (+++ = MIC ≦ 4)
Minimum Inhibitory Concentration (MIC) [4]: +++ (+++ = MIC ≦ 4)
Minimum Inhibitory Concentration (MIC) [5]: +++ (+++ = MIC ≦ 4)
Minimum Inhibitory Concentration (MIC) (B. Cereus ATCC 11778): +++ (+++ = MIC ≦ 4)

Cc1cc(NC(=O)c2cc(NC(=O)c3nc(NC(=O)c4cc5ccccc5cn4)cn3C)cn2CCN2CCOCC2)sn1 [Ib-77]
Minimum Inhibitory Concentration (MIC) [1]: +++ (+++ = MIC ≦ 4)
Minimum Inhibitory Concentration (MIC) [2]: +++ (+++ = MIC ≦ 4)
Minimum Inhibitory Concentration (MIC) (S. aureus ATCC 33591): +++ (+++ = MIC ≦ 4)
Minimum Inhibitory Concentration (MIC) [3]: +++ (+++ = MIC ≦ 4)
Minimum Inhibitory Concentration (MIC) [4]: +++ (+++ = MIC ≦ 4)
Minimum Inhibitory Concentration (MIC) [5]: +++ (+++ = MIC ≦ 4)
Minimum Inhibitory Concentration (MIC) (B. Cereus ATCC 11778): +++ (+++ = MIC ≦ 4)

CN1CCCC1CCNC(=O)c1cc(NC(=O)c2cc(NC(=O)c3cc(NC(=O)c4sc5cc6c(cc5c4Cl)OCO6)cn3C)cn2C)cn1C (stereo not shown) [Ib-20m]
Minimum Inhibitory Concentration (MIC) [1]: +++ (+++ = MIC ≦ 4)
Minimum Inhibitory Concentration (MIC) [2]: +++ (+++ = MIC ≦ 4)
Minimum Inhibitory Concentration (MIC) (S. aureus ATCC 33591): +++ (+++ = MIC ≦ 4)
Minimum Inhibitory Concentration (MIC) [3]: +++ (+++ = MIC ≦ 4)
Minimum Inhibitory Concentration (MIC) [4]: +++ (+++ = MIC ≦ 4)
Minimum Inhibitory Concentration (MIC) [5]: +++ (+++ = MIC ≦ 4)
Minimum Inhibitory Concentration (MIC) (B. Cereus ATCC 11778): +++ (+++ = MIC ≦ 4)

CC(=O)[O-].Cc1cc(NC(=O)c2cc(NC(=O)c3cc(NC(=O)c4cc5ccccc5cn4)cn3C)cn2CCC[N+](C)(C)C)sn1 [Ib-74]
Minimum Inhibitory Concentration (MIC) [1]: +++ (+++ = MIC ≦ 4)
Minimum Inhibitory Concentration (MIC) [2]: +++ (+++ = MIC ≦ 4)
Minimum Inhibitory Concentration (MIC) (S. aureus ATCC 33591): +++ (+++ = MIC ≦ 4)
Minimum Inhibitory Concentration (MIC) [3]: +++ (+++ = MIC ≦ 4)
Minimum Inhibitory Concentration (MIC) [4]: +++ (+++ = MIC ≦ 4)
Minimum Inhibitory Concentration (MIC) [5]: +++ (+++ = MIC ≦ 4)
Minimum Inhibitory Concentration (MIC) (B. Cereus ATCC 11778): +++ (+++ = MIC ≦ 4)

Cn1cc(NC(=O)c2cc(NC(=O)c3cc(NC(=O)c4sc5cc6c(cc5c4Cl)OCO6)cn3C)cn2C)cc1C(=O)NCCN1CCOCC1 [Ib-20d]
Minimum Inhibitory Concentration (MIC) [1]: +++ (+++ = MIC ≦ 4)
Minimum Inhibitory Concentration (MIC) [2]: +++ (+++ = MIC ≦ 4)
Minimum Inhibitory Concentration (MIC) (S. aureus ATCC 33591): +++ (+++ = MIC ≦ 4)
Minimum Inhibitory Concentration (MIC) [3]: +++ (+++ = MIC ≦ 4)
Minimum Inhibitory Concentration (MIC) [4]: +++ (+++ = MIC ≦ 4)
Minimum Inhibitory Concentration (MIC) [5]: +++ (+++ = MIC ≦ 4)
Minimum Inhibitory Concentration (MIC) (B. Cereus ATCC 11778): +++ (+++ = MIC ≦ 4)

Cn1cc(NC(=O)c2cc(NC(=O)c3cc(NC(=O)c4cc5ccccc5cn4)c[nH]3)cn2C)cc1C(=O)NCCN1CCC(F)CC1 [Ib-71]
Minimum Inhibitory Concentration (MIC) [1]: +++ (+++ = MIC ≦ 4)
Minimum Inhibitory Concentration (MIC) [2]: +++ (+++ = MIC ≦ 4)
Minimum Inhibitory Concentration (MIC) (S. aureus ATCC 33591): +++ (+++ = MIC ≦ 4)
Minimum Inhibitory Concentration (MIC) [3]: +++ (+++ = MIC ≦ 4)
Minimum Inhibitory Concentration (MIC) [4]: +++ (+++ = MIC ≦ 4)
Minimum Inhibitory Concentration (MIC) [5]: +++ (+++ = MIC ≦ 4)
Minimum Inhibitory Concentration (MIC) (B. Cereus ATCC 11778): +++ (+++ = MIC ≦ 4)

Cn1cc(NC(=O)c2cc3ccccc3cn2)cc1C(=O)Nc1cc(C(=O)Nc2cc(C(=O)NCCN3CCCCC3)n(CCN3CCCCC3)c2)n(C)c1 [Ib-68]
Minimum Inhibitory Concentration (MIC) [1]: +++ (+++ = MIC ≦ 4)
Minimum Inhibitory Concentration (MIC) [2]: +++ (+++ = MIC ≦ 4)
Minimum Inhibitory Concentration (MIC) (S. aureus ATCC 33591): +++ (+++ = MIC ≦ 4)
Minimum Inhibitory Concentration (MIC) [3]: +++ (+++ = MIC ≦ 4)
Minimum Inhibitory Concentration (MIC) [4]: +++ (+++ = MIC ≦ 4)
Minimum Inhibitory Concentration (MIC) [5]: +++ (+++ = MIC ≦ 4)
Minimum Inhibitory Concentration (MIC) (B. Cereus ATCC 11778): +++ (+++ = MIC ≦ 4)

Cc1cc(NC(=O)c2cc(NC(=O)c3cc(NC(=O)c4cc5ccccc5cn4)cn3C)cn2CCN2CCCC2)sn1 [Ib-65]
Minimum Inhibitory Concentration (MIC) [1]: +++ (+++ = MIC ≦ 4)
Minimum Inhibitory Concentration (MIC) [2]: +++ (+++ = MIC ≦ 4)
Minimum Inhibitory Concentration (MIC) (S. aureus ATCC 33591): +++ (+++ = MIC ≦ 4)
Minimum Inhibitory Concentration (MIC) [3]: +++ (+++ = MIC ≦ 4)
Minimum Inhibitory Concentration (MIC) [4]: +++ (+++ = MIC ≦ 4)
Minimum Inhibitory Concentration (MIC) [5]: +++ (+++ = MIC ≦ 4)
Minimum Inhibitory Concentration (MIC) (B. Cereus ATCC 11778): +++ (+++ = MIC ≦ 4)

Cn1cc(NC(=O)c2cc(NC(=O)c3cc(NC(=O)c4cc5ccccc5cn4)cn3C)c[nH]2)cc1C(=O)NCCN1CCOCC1 [Ib-67]
Minimum Inhibitory Concentration (MIC) [1]: +++ (+++ = MIC ≦ 4)
Minimum Inhibitory Concentration (MIC) [2]: +++ (+++ = MIC ≦ 4)
Minimum Inhibitory Concentration (MIC) (S. aureus ATCC 33591): +++ (+++ = MIC ≦ 4)
Minimum Inhibitory Concentration (MIC) [3]: +++ (+++ = MIC ≦ 4)
Minimum Inhibitory Concentration (MIC) [4]: +++ (+++ = MIC ≦ 4)
Minimum Inhibitory Concentration (MIC) [5]: +++ (+++ = MIC ≦ 4)
Minimum Inhibitory Concentration (MIC) (B. Cereus ATCC 11778): +++ (+++ = MIC ≦ 4)

Cn1cc(NC(=O)c2cc(NC(=O)c3cc(NC(=O)c4sc5cc6c(cc5c4Cl)OCO6)cn3C)cn2C)cc1C(=O)NCCN1CCCC1 [Ib-20g]
Minimum Inhibitory Concentration (MIC) [1]: +++ (+++ = MIC ≦ 4)
Minimum Inhibitory Concentration (MIC) (S. aureus ATCC 33591): +++ (+++ = MIC ≦ 4)
Minimum Inhibitory Concentration (MIC) [3]: +++ (+++ = MIC ≦ 4)
Minimum Inhibitory Concentration (MIC) [4]: +++ (+++ = MIC ≦ 4)
Minimum Inhibitory Concentration (MIC) [5]: +++ (+++ = MIC ≦ 4)
Minimum Inhibitory Concentration (MIC) (B. Cereus ATCC 11778): +++ (+++ = MIC ≦ 4)

CCN(CC)CCNC(=O)c1cc(NC(=O)c2cc(NC(=O)c3cc(NC(=O)c4sc5cc6c(cc5c4Cl)OCO6)cn3C)cn2C)cn1C [Ib-20h]
Minimum Inhibitory Concentration (MIC) (S. aureus ATCC 33591): +++ (+++ = MIC ≦ 4)
Minimum Inhibitory Concentration (MIC) [3]: +++ (+++ = MIC ≦ 4)
Minimum Inhibitory Concentration (MIC) [4]: +++ (+++ = MIC ≦ 4)
Minimum Inhibitory Concentration (MIC) (B. Cereus ATCC 11778): +++ (+++ = MIC ≦ 4)

Cn1cc(NC(=O)c2cc(NC(=O)c3cc(NC(=O)c4cc5ccccc5cn4)c[nH]3)cn2C)cc1C(=O)NCCc1ccncc1 [Ib-76]
Minimum Inhibitory Concentration (MIC) [2]: +++ (+++ = MIC ≦ 4)
Minimum Inhibitory Concentration (MIC) (S. aureus ATCC 33591): +++ (+++ = MIC ≦ 4)
Minimum Inhibitory Concentration (MIC) [3]: +++ (+++ = MIC ≦ 4)
Minimum Inhibitory Concentration (MIC) [4]: +++ (+++ = MIC ≦ 4)
Minimum Inhibitory Concentration (MIC) [5]: +++ (+++ = MIC ≦ 4)
Minimum Inhibitory Concentration (MIC) (B. Cereus ATCC 11778): +++ (+++ = MIC ≦ 4)

Cn1cc(NC(=O)c2cc(NC(=O)c3cc(NC(=O)c4cc5cc6c(cc5s4)OCO6)cn3C)cn2C)cc1C(=O)NCCN1CCOCC1 [Ib-20v]
Minimum Inhibitory Concentration (MIC) (S. aureus ATCC 33591): +++ (+++ = MIC ≦ 4)
Minimum Inhibitory Concentration (MIC) [3]: +++ (+++ = MIC ≦ 4)
Minimum Inhibitory Concentration (MIC) [4]: +++ (+++ = MIC ≦ 4)
Minimum Inhibitory Concentration (MIC) (B. Cereus ATCC 11778): +++ (+++ = MIC ≦ 4)
